In patent US20230012560A1, “HEPATITIS B ANTIVIRAL AGENTS” (TAIGEN BIOTECHNOLOGY CO., LTD., priority 2019, published 2023):

What follows are compounds tested on HBV (HepAD38 cells) (assay: Real-Time PCR Assay (extracellular HBV DNA from HepAD38 culture supernatants)). Conditions: Hepatitis B virus, 120 h, compound treatment for 5 days without tetracycline, extracellular DNA in culture supernatant quantified by real-time PCR, read-out: EC50 (50% effective concentration).
Assay type: cell-based
Procedure: HepAD38 cells were seeded and cultured on 96-well plates. After incubation for 2 days, cells were fed with compound-containing media without tetracycline. After compound treatment for 5 days, culture supernatants were collected. Extracellular DNA was then extracted using LabTurbo DNA mini kit, and quantified by real-time PCR.
Real-time PCR was performed using an ABI QuantStudio 3 system in a 96-well optical plate format. The PCR mixture containing forward primer (5′-[…]-3′) (SEQ ID NO.1), reverse primer (5′-GGTGAGTGATTGGAGGTTG-3′) (SEQ ID NO.2) and Luna Universal qPCR Master Mix in a final volume of 24 μl was incubated at 95° C. for 10 min followed by 45 cycle of incubation at 95° C. for 10 s and 60° C. for 10 s. Regression analysis was performed using GraphPad Prism 5 to calculate the 50% effective concentration (EC50) values.

Which EC50 does the source give for `CNC(=O)C(=O)N1CC[C@@H](NS(=O)(=O)c2c(F)c(C(=O)Nc3cc(F)c(F)c(F)c3)n3c2CCCC3)C1` [Compound 46] here?
The EC50 was 100 to 300 nM.

Which EC50 does the source give for `CCNC(=O)C(=O)N1CCC(NS(=O)(=O)c2cn(C)c(C(=O)Nc3cc(F)c(F)c(F)c3)c2Cl)C2(CC2)C1` (centres unmarked) [Compound 87] here?
Its EC50 is < 100 nM.

With `CNC(=O)C(=O)N1C[C@@H]2[C@H](C1)[C@@H]2NS(=O)(=O)c1cn(C)c(C(=O)Nc2cc(F)c(F)c(F)c2)c1F` [Compound 100] as the compound, how does the EC50 read?
The EC50 was < 100 nM.

How did the EC50 turn out when `CCONC(=O)C(=O)N1CC[C@@H](NS(=O)(=O)c2cn(C)c(C(=O)Nc3cc(F)c(F)c(F)c3)c2F)C1` [Compound 35] was run?
The EC50 was < 100 nM.

How did the EC50 turn out when `CNS(=O)(=O)N1CC[C@@H](NS(=O)(=O)c2c(F)c(C(=O)Nc3ccc(F)c(F)c3)n(C)c2Br)C1` [Compound 8] was run?
Its EC50 is < 100 nM.

With `Cn1cc(S(=O)(=O)N[C@@H]2CCN(C(=O)C(=O)NCCO)C2)c(F)c1C(=O)Nc1cc(F)c(F)c(F)c1` [Compound 37] as the compound, how does the EC50 read?
The EC50 was < 100 nM.

With `CCn1cc(S(=O)(=O)N[C@@H]2CCN(S(=O)(=O)NC)C2)c(F)c1C(=O)Nc1ccc(F)c(F)c1` [Compound 17] as the compound, how does the EC50 read?
The EC50 was < 100 nM.

Which EC50 does the source give for `CNC(=O)C(=O)N1CC[C@@H](NS(=O)(=O)c2cn(C)c(C(=O)Nc3ccc(F)c(C(F)F)c3)c2F)C1` [Compound 40] here?
Its EC50 is < 100 nM.

Which EC50 does the source give for `CCS(=O)(=O)N1CCC2(NS(=O)(=O)c3cn(C)c(C(=O)Nc4ccc(F)c(F)c4)c3F)CC2C1` (centres unmarked) [Compound 26] here?
The EC50 was < 100 nM.

For `Cn1cc(S(=O)(=O)N[C@@H]2CCN(C(=O)C(=O)NC3CC3)C2)c(F)c1C(=O)Nc1ccc(F)c(F)c1` [Compound 33], which EC50 is on record?
The EC50 was < 100 nM.

How did the EC50 turn out when `CCNC(=O)C(=O)N1CCC(NS(=O)(=O)c2cn(C)c(C(=O)Nc3cc(F)c(F)c(F)c3)c2Cl)CC1` [Compound 76] was run?
Its EC50 is < 100 nM.

`Cn1cc(S(=O)(=O)N[C@@H]2CCN(S(=O)(=O)c3ccc(F)cc3)C2)c(F)c1C(=O)Nc1ccc(F)c(F)c1` [Compound 13] was tested. Which EC50 did it give?
Its EC50 is < 100 nM.

How did the EC50 turn out when `CCNC(=O)C(=O)N1CC[C@@H](NS(=O)(=O)c2cn(C)c(C(=O)Nc3ccc(F)c(F)c3)c2F)C(C)(C)C1` [Compound 99] was run?
Its EC50 is < 100 nM.

With `COCCNC(=O)C(=O)N1CC[C@@H](NS(=O)(=O)c2cn(C)c(C(=O)Nc3ccc(F)c(F)c3)c2F)C1` [Compound 32] as the compound, how does the EC50 read?
The EC50 was < 100 nM.

Which EC50 does the source give for `CNS(=O)(=O)N1CCN(S(=O)(=O)c2cn(C)c(C(=O)Nc3cc(F)c(F)c(F)c3)c2F)CC1` [Compound 66] here?
The EC50 was 100 to 300 nM.

Which EC50 does the source give for `Cn1cc(S(=O)(=O)NC2CCN(C(=O)C(N)=O)CC2)c(F)c1C(=O)Nc1cc(F)c(F)c(F)c1` [Compound 68] here?
The EC50 was < 100 nM.

With `CCNC(=O)C(=O)N1CCC(NS(=O)(=O)c2cn(C)c(C(=O)Nc3ccc(F)c(C)c3)c2F)CC1` [Compound 71] as the compound, how does the EC50 read?
The EC50 was < 100 nM.

For `CCNC(=O)C(=O)N1CC(NS(=O)(=O)c2cn(C)c(C(=O)Nc3cc(F)c(F)c(F)c3)c2F)C1` [Compound 56], which EC50 is on record?
The EC50 was < 100 nM.

For `Cn1cc(S(=O)(=O)N[C@@H]2CCN(C(=O)C(=O)NC3COC3)C2)c(F)c1C(=O)Nc1cc(F)c(F)c(F)c1` [Compound 36], which EC50 is on record?
Its EC50 is < 100 nM.

Which EC50 does the source give for `CNS(=O)(=O)N1CC[C@@H](NS(=O)(=O)c2c(F)c(C(=O)Nc3ccc(F)c(F)c3)n3c2CCC3)C1` [Compound 10] here?
Its EC50 is < 100 nM.

`CCNC(=O)C(=O)N1CC[C@@H](NS(=O)(=O)c2cn(C)c(C(=O)Nc3ccc(F)c(F)c3)c2F)C(F)(F)C1` [Compound 94] was tested. Which EC50 did it give?
The EC50 was < 100 nM.

With `CCNC(=O)C(=O)N1CC(C)C(NS(=O)(=O)c2cn(C)c(C(=O)Nc3cc(F)c(F)c(F)c3)c2F)C1` (centres unmarked) [Compound 54] as the compound, how does the EC50 read?
The EC50 was < 100 nM.

Which EC50 does the source give for `CCNC(=O)C(=O)N1CCC(C)(NS(=O)(=O)c2cn(C)c(C(=O)Nc3cc(F)c(F)c(F)c3)c2F)CC1` [Compound 82] here?
Its EC50 is 100 to 300 nM.
